Entries after “also recorded” stand apart in the source; their conditions may differ. Like-named read-outs stand apart in the source and are kept apart here.
Test system: Madin-Darby canine kidney (MDCK) cell monolayers
Test: scrape-wound closure assay in MDCK cell monolayers
Format: cell-based
Details: for IC50: Canis lupus familiaris, MDCK, 12 h
From the text: A method of determining the ability of a compound to inhibit or accelerate cell motility is a scrape-wound closure assay using cultured mammalian epithelial cell monolayers. Mechanical scraping of the epithelial monolayer induces cell sheet migration into the resulting gap, a phenomenon characteristic of wounded epithelia and mechanistically related to normal epithelial movements during embryonic morphogenesis (A. Jacinto et al., Nat. Cell Biol, 3, E117 (2001)). Epithelial cell sheet migration in this method proceeds by a Rac- and phosphoinositide-dependent cell crawling mechanism resembling the motility of other animal cells that move as individuals rather than as cell sheets (G. Fenteany et al., Curr. Biol., 10, 831 (2000)).
Wound closure in MDCK cell monolayers primarily involves cell spreading and motility rather than proliferation based on observations and treatments that block cell growth without inhibiting closure. However, after closure is complete and the gap is covered, cell division is observed in the former wound area, presumably as part of a homeostatic mechanism to regain the original cell density (M. F. Olson et al., Science, 269, 1270 (1995)). Wound closure involves Rac- and phosphoinositide-dependent actin polymerization and protrusion-driven cell crawling behavior, where force generation for movement is distributed from the wound margin to several rows of cells behind the margin. Accordingly, this method is excellent for determining whether a compound affects cell motility.
Cell culture conditions: Madin-Darby canine kidney (MDCK) cells (American Type Culture Collection cell line CCL-34) were cultured in Minimum Essential Medium (with Earle's balanced salts, non-essential amino acids, L-glutamine and sodium pyruvate) supplemented with 10% newborn calf serum at 37° C. and 5% carbon dioxide (CO2). Main cultures were grown in either […] tissue culture flasks with medium changes every two days. When cultures were about 75% confluent, cells were passaged by rinsing twice with single strength phosphate buffered saline (PBS) and treating with a solution of 0.05% (w/v) trypsin/0.02% (w/v) ethylenediaminetetraacetic acid (EDTA) in PBS to detach cells from the flasks. After cells were detached, an equal volume of serum-containing medium was added to inhibit the trypsin and cell density was determined using a hemacytometer. Cells were replated following dilution in fresh medium on new tissue culture flasks for continued culture and multiwell tissue culture plates for experiments. No culture used exceeded 15 passages. Experimental cultures were grown in 12-, 24-, 48-, or 96-well tissue culture plates with medium changes every two days.
Wound closure assay and compound screening: MDCK cells were plated on multiwell tissue culture plates and cultured at 37° C. and 5% CO2 with medium changes every two days until confluent. When the cultures reached confluence, medium was changed again and all experimental treatments were begun a day later. Compounds were solubilized in dimethyl sulfoxide (DMSO) and added with fresh-medium to cell cultures at initial screening concentrations of 10 and 100 μM. Controls consisted of parallel wells to-which DMSO solvent carrier alone was added at the same concentration as that added with experimental treatments (not exceeding 0.1% (v/v)). DMSO alone at this concentration had no detectable effect on the cells. Monolayers were scraped 30 min later with a micropipette and ultramicro tips, allowing small wounds of consistent size to be generated. Progress of wound closure was examined at set time intervals following wounding by microscope, and inhibitory or acceleratory effects on wound closure relative to parallel controls noted. […] Digital images of the wounded monolayers were taken every 2 hours for 18 hours, and then at 30, 36, 54, 60, and 72 hours following wounding. The number of lamellipodia at the wound margin was also counted at these times. […]

## C/C=C/C(=O)N1C(=O)OC[C@@H]1Cc1ccccc1 [Compound 1, (4S)-3-((E)-2-butenoyl)-4-benzyl-2-oxazolidinone]
read-out: calculated IC50 for inhibition of wound closure at 12 hours
  IC50: 14 µM
read-out: log IC50±standard error of log IC50 (converted)
  IC50: 14 µM
MDCK cells, p<0.05
  inhibition of cell motility / epithelial cell sheet migration during wound closure: potent inhibitor of cell motility; also recorded: inhibits epithelial cell sheet migration during wound closure
serum-free
  inhibition of wound closure in serum-free conditions: inhibited wound closure to a similar degree relative to the control
Upon changing to compound-free medium
  reversibility of inhibition of wound closure: reversible

From patent US7390826B2, “Inhibitors of animal cell motility and growth” (The Board of Trustees of The University of Illinois, priority 2002, dated 2008)
